Experimental data published in patent US11713306B2, “5-substituted difluoropiperidine compounds with blood-brain barrier penetrable capability” (Wayshine Biopharm Holding Limited, priority 2018, dated 2023).

These molecules were tested against FYN (Homo sapiens (Human), UniProt P06241) (assay: Kinase inhibition assay (Caliper, FAM-labeled peptide substrate)).
Format: biochemical
Procedure: 2.5 times of the kinase (VEGFR2 or EGFR or FYN) buffer solution was added to the compound diluted in equal concentration in the 384-well plate and incubated at 22-27° C. for 10 minutes, then 2.5 times of the FAM-labeled peptide substrate and ATP buffer solution were added therein and incubated at 28° C., and then the stop buffer solution was added to stop the reaction. The data was read by Caliper and the following formula was used to calculate the IC50 inhibition: Percent inhibition=(max-conversion)/(max-min)*100. Staurosporine was used as a control. In kinase inhibition assays, some of the compounds of the present invention are effective in inhibiting VEGFR2/FYN/EGFR, so they have the potential for treating or preventing cancer or central nervous system diseases (Table 1).

Sequence of FYN (P06241 whole entry): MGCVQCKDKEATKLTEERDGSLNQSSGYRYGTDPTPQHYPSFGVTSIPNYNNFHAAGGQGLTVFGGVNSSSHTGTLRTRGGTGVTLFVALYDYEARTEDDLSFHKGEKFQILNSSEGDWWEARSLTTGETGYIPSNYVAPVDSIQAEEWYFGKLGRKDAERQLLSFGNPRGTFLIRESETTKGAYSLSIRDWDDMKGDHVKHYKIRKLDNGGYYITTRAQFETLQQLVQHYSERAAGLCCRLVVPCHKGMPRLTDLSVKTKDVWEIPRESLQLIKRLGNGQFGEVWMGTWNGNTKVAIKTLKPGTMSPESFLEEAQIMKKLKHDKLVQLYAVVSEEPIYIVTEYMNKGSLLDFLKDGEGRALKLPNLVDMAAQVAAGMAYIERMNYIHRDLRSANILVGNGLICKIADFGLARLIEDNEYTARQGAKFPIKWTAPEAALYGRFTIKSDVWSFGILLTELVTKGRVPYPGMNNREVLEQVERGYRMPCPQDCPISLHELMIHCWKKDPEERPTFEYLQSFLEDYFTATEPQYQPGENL

IC50 [nM] | SMILES
< 100 | COc1cc(O[C@@H]2CCN(C(C)C)CC2(F)F)c2c(Nc3c(F)ccc4c3OCO4)ncnc2c1 [Compound 31, (R)-5-((3,3-difluoro-1-isopropylpiperidin-4-yl)oxy)-N-(5-fluorobenzo[d] [1,3]dioxolcyclopenten-4-yl)-7-methoxyquinazolin-4-amine]
< 100 | CCN1CC[C@@H](Oc2cc(OC)cc3ncnc(Nc4c(F)ccc5c4OCO5)c23)C(F)(F)C1 [Compound 26, (R)-5-((1-ethyl-3,3-difluoropiperidin-4-yl)oxy)-N-(5-fluorobenzo[d] [1,3]dioxolcyclopenten-4-yl)-7-methoxyquinazolin-4-amine]
< 100 | COc1cc(OC2CCN(C)CC2(F)F)c2c(Nc3cc(OC)c(Cl)cc3F)ncnc2c1 (racemic) [Compound 8, (R/S)—N-(4-chloro-2-fluoro-5-methoxyphenyl)-5-((3,3-difluoro-1-methylpiperidin-4-yl)oxy)-7-methoxyquinazolin-4-amine]
< 100 | CCOc1cc(OC2CCN(C)CC2(F)F)c2c(Nc3c(Cl)ccc4c3OCO4)ncnc2c1 (racemic) [Compound 9, (R/S)—N-(5-chlorobenzo[d][1,3]dioxolcyclopenten-4-yl)-5-((3,3-difluoro-1-methylpiperidin-4-yl)oxy)-7-ethoxyquinazolin-4-amine]
< 100 | COc1cc(O[C@H]2CCN(C3COC3)CC2(F)F)c2c(Nc3c(F)ccc4c3OCO4)ncnc2c1 [Compound 45, (S)-5-((3,3-difluoro-1-(oxetane-3-yl)piperidin-4-yl)oxy)-N-(5-fluorobenzo[d] [1,3]dioxolcyclopenten-4-yl)-7-methoxyquinazolin-4-amine]
< 100 | COc1cc(O[C@H]2CCN(C)CC2(F)F)c2c(Nc3c(F)ccc4c3OCO4)ncnc2c1 [Compound 39, (S)—N-(5-fluorobenzo[d][1,3]dioxolcyclopenten-4-yl)-5-((3,3-difluoro-1-methylpiperidin-4-yl)oxy)-7-deuterated methoxyquinazolin-4-amine]
< 100 | CCOc1cc(O[C@H]2CCN(C)CC2(F)F)c2c(Nc3c(Cl)ccc4c3OCO4)ncnc2c1 [Compound 41, (S)—N-(5-chlorobenzo[d][1,3]dioxolcyclopenten-4-yl)-5-((3,3-difluoro-1-methylpiperidin-4-yl)oxy)-7-ethoxyquinazolin-4-amine]
< 100 | COc1cc(OC2CCN(C)CC2(F)F)c2c(Nc3c(F)ccc4c3OCO4)ncnc2c1 (racemic) [Compound 7, (R/S)—N-(5-fluorobenzo[d][1,3]dioxolcyclopenten-4-yl)-5-((3,3-difluoro-1-methylpiperidin-4-yl)oxy)-7-deuterated methoxyquinazolin-4-amine]
< 100 | CCOc1cc(O[C@H]2CCN(C)CC2(F)F)c2c(Nc3c(F)ccc4c3OCO4)ncnc2c1 [Compound 38, (S)—N-(5-fluorobenzo[d][1,3]dioxolcyclopenten-4-yl)-5-((3,3-difluoro-1-methylpiperidin-4-yl)oxy)-7-ethoxyquinazolin-4-amine]
< 100 | CCN1CC[C@H](Oc2cc(OC)cc3ncnc(Nc4c(F)ccc5c4OCO5)c23)C(F)(F)C1 [Compound 42, (S)-5-((1-ethyl-3,3-difluoropiperidin-4-yl)oxy)-N-(5-fluorobenzo[d] [1,3]dioxolcyclopenten-4-yl)-7-methoxyquinazolin-4-amine]
< 100 | CCN1CCC(Oc2cc(OC)cc3ncnc(Nc4c(F)ccc5c4OCO5)c23)C(F)(F)C1 (racemic) [Compound 10, (R/S)-5-((1-ethyl-3,3-difluoropiperidin-4-yl)oxy)-N-(5-fluorobenzo[d] [1,3]dioxolcyclopenten-4-yl)-7-methoxyquinazolin-4-amine]
< 100 | COc1cc(OC2CCN(C3COC3)CC2(F)F)c2c(Nc3c(Cl)ccc4c3OCO4)ncnc2c1 (racemic) [Compound 14, (R/S)-5-((3,3-difluoro-1-(oxetane-3-yl)piperidin-4-yl)oxy)-N-(5-chlorobenzo[d][1,3]dioxolcyclopenten-4-yl)-7-methoxyquinazolin-4-amine]
< 100 | COc1cc(O[C@H]2CCN(C)CC2(F)F)c2c(Nc3cc(OC)c(Cl)cc3F)ncnc2c1 [Compound 40, (S)—N-(4-chloro-2-fluoro-5-methoxyphenyl)-5-((3,3-difluoro-1-methylpiperidin-4-yl)oxy)-7-methoxyquinazolin-4-amine]
< 100 | COc1cc(OC2CCN(C)CC2(F)F)c2c(Nc3c(F)ccc4c3OCO4)ncnc2c1 (racemic) [Compound 5, (R/S)—N-(5-fluorobenzo[d][1,3]dioxolcyclopenten-4-yl)-5-((3,3-difluoro-1-methylpiperidin-4-yl)oxy)-7-methoxyquinazolin-4-amine]
< 100 | COc1cc(OC2CCN(C)CC2(F)F)c2c(Nc3c(Cl)ccc4c3OCO4)ncnc2c1 (racemic) [Compound 12, (R/S)—N-(5-chlorobenzo[d] [1,3]dioxolcyclopenten-4-yl)-5-((3,3-difluoro-1-methylpiperidin-4-yl)oxy)-7-deuterated methoxyquinazolin-4-amine]
< 100 | COc1cc(O[C@H]2CCN(C(C)C)CC2(F)F)c2c(Nc3c(F)ccc4c3OCO4)ncnc2c1 [Compound 47, (S)-5-((3,3-difluoro-1-isopropylpiperidin-4-yl)oxy)-N-(5-fluorobenzo[d][1,3]dioxolcyclopenten-4-yl)-7-methoxyquinazolin-4-amine]
< 100 | COc1cc(O[C@H]2CCN(C)CC2(F)F)c2c(Nc3c(Cl)ccc4c3OCO4)ncnc2c1 [Compound 36, (S)—N-(5-chlorobenzo[d][1,3]dioxolcyclopenten-4-yl)-5-((3,3-difluoro-1-methylpiperidin-4-yl)oxy)-7-methoxyquinazolin-4-amine]
< 100 | CCOc1cc(O[C@@H]2CCN(C)CC2(F)F)c2c(Nc3c(F)ccc4c3OCO4)ncnc2c1 [Compound 22, (R)—N-(5-fluorobenzo[d][1,3]dioxolcyclopenten-4-yl)-5-((3,3-difluoro-1-methylpiperidin-4-yl)oxy)-7-ethoxyquinazolin-4-amine]
< 100 | COc1cc(OC2CCN(C3COC3)CC2(F)F)c2c(Nc3c(F)ccc4c3OCO4)ncnc2c1 (racemic) [Compound 13, (R/S)-5-((3,3-difluoro-1-(oxetane-3-yl)piperidin-4-yl)oxy)-N-(5-fluorobenzo[d][1,3]dioxolcyclopenten-4-yl)-7-methoxyquinazolin-4-amine]
< 100 | COc1cc(O[C@@H]2CCN(C)CC2(F)F)c2c(Nc3c(Cl)ccc4c3OCO4)ncnc2c1 [Compound 20, (R)—N-(5-chlorobenzo[d][1,3]dioxolcyclopenten-4-yl)-5-((3,3-difluoro-1-methylpiperidin-4-yl)oxy)-7-methoxyquinazolin-4-amine]
< 100 | COc1cc(O[C@@H]2CCN(C3COC3)CC2(F)F)c2c(Nc3c(F)ccc4c3OCO4)ncnc2c1 [Compound 29, (R)-5-((3,3-difluoro-1-(oxetane-3-yl)piperidin-4-yl)oxy)-N-(5-fluorobenzo[d] [1,3]dioxolcyclopenten-4-yl)-7-methoxyquinazolin-4-amine]
< 100 | COc1cc(O[C@@H]2CCN(C3COC3)CC2(F)F)c2c(Nc3c(Cl)ccc4c3OCO4)ncnc2c1 [Compound 30, (R)-5-((3,3-difluoro-1-(oxetane-3-yl)piperidin-4-yl)oxy)-N-(5-chlorobenzo[d][1,3]dioxolcyclopenten-4-yl)-7-methoxyquinazolin-4-amine]
< 100 | COc1cc(O[C@H]2CCN(C)CC2(F)F)c2c(Nc3c(F)ccc4c3OCO4)ncnc2c1 [Compound 37, (S)—N-(5-fluorobenzo[d][1,3]dioxolcyclopenten-4-yl)-5-((3,3-difluoro-1-methylpiperidin-4-yl)oxy)-7-methoxyquinazolin-4-amine]
< 100 | COc1cc(O[C@@H]2CCN(C)CC2(F)F)c2c(Nc3cc(OC)c(Cl)cc3F)ncnc2c1 [Compound 24, (R)—N-(4-chloro-2-fluoro-5-methoxyphenyl)-5-((3,3-difluoro-1-methylpiperidin-4-yl)oxy)-7-methoxyquinazolin-4-amine]
< 100 | COc1cc(OC2CCN(C(C)C)CC2(F)F)c2c(Nc3c(F)ccc4c3OCO4)ncnc2c1 (racemic) [Compound 15, (R/S)-5-((3,3-difluoro-1-isopropylpiperidin-4-yl)oxy)-N-(5-fluorobenzo[d][1,3]dioxolcyclopenten-4-yl)-7-methoxyquinazolin-4-amine]
< 100 | COc1cc(O[C@@H]2CCN(C)CC2(F)F)c2c(Nc3c(F)ccc4c3OCO4)ncnc2c1 [Compound 21, (R)—N-(5-fluorobenzo[d][1,3]dioxolcyclopenten-4-yl)-5-((3,3-difluoro-1-methylpiperidin-4-yl)oxy)-7-methoxyquinazolin-4-amine]
< 100 | COc1cc(O[C@@H]2CCN(C)CC2(F)F)c2c(Nc3c(Cl)ccc4c3OCO4)ncnc2c1 [Compound 28, (R)—N-(5-chlorobenzo[d] [1,3]dioxolcyclopenten-4-yl)-5-((3,3-difluoro-1-methylpiperidin-4-yl)oxy)-7-deuterated methoxyquinazolin-4-amine]
< 100 | CCOc1cc(O[C@@H]2CCN(C)CC2(F)F)c2c(Nc3c(Cl)ccc4c3OCO4)ncnc2c1 [Compound 25, (R)—N-(5-chlorobenzo[d][1,3]dioxolcyclopenten-4-yl)-5-((3,3-difluoro-1-methylpiperidin-4-yl)oxy)-7-ethoxyquinazolin-4-amine]
< 100 | COc1cc(O[C@H]2CCN(C3COC3)CC2(F)F)c2c(Nc3c(Cl)ccc4c3OCO4)ncnc2c1 [Compound 46, (S)-5-((3,3-difluoro-1-(oxetane-3-yl)piperidin-4-yl)oxy)-N-(5-chlorobenzo[d][1,3]dioxolcyclopenten-4-yl)-7-methoxyquinazolin-4-amine]
